Drawing on US20200101068A1, “Heteroaryl Derivatives as PARP Inhibitors” (Lupin Limited, priority 2015, published 2020), this text covers IC50 for eight compounds.

The structures appear in SMILES notation.

T1 sequence (P09874 whole entry): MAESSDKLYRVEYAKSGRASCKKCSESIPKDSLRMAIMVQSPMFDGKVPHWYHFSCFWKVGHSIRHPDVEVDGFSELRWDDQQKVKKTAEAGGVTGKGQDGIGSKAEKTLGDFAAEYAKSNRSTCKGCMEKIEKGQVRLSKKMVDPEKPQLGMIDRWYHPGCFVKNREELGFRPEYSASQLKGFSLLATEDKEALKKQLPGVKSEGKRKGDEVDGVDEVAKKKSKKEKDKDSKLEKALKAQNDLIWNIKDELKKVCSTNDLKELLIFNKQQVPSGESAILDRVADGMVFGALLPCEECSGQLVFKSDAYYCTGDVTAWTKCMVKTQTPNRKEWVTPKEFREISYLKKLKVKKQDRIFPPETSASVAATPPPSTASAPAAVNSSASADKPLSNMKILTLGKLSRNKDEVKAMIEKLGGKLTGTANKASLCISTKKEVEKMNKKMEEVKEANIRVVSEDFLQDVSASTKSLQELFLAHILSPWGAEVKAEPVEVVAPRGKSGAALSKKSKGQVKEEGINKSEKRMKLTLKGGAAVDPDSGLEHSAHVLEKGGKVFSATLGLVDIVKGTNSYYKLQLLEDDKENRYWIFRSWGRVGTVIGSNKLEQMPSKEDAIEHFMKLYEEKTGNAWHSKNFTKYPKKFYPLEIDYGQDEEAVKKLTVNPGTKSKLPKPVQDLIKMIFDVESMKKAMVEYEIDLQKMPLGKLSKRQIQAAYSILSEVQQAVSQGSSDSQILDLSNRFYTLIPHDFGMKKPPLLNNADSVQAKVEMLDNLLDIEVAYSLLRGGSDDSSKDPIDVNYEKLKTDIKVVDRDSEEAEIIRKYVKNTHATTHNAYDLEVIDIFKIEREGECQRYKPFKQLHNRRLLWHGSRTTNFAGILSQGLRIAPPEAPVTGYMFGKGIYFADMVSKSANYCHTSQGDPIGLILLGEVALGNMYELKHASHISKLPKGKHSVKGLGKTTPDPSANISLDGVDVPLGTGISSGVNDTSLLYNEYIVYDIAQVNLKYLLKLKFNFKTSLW

The test concerns the target T1, PARP1 (Homo sapiens, UniProt P09874).
T1 construct: purchased BPS Bioscience
Nature of the test: PARP1 biochemical assay (BPS Bioscience kit, chemiluminescent). The following applies: histone-coated plate, biotinylated NAD+, 60 min at 25° C., luminescence; read-out: PARP 1 inhibition IC50. The method, then:
Example 16: PARP1 Biochemical Assay
The assay was performed using BPS Bioscience kit. The 96-well strip plate was coated with 50 μl of histone mixture and incubated at 4° C. overnight. The next day, the wells were blocked by adding 100 μl of blocking buffer. The plate was washed and 25 μl of appropriate concentration of PARP1 (25-75 ng/well) was added in all of the Test and Positive control wells. In the Negative control wells, the enzyme was replaced with 25 μl of water. 5 μl each of 10× PARP assay buffer and activated DNA was added in all the wells (Test, Positive and Negative control wells). 10× concentration of the test compounds were prepared and 5 μl test compounds were added to the respective wells. The reaction volume was made up to 45 μl by adding water to all of the wells. 5 μl of 10× PARP assay mixture containing biotinilated NAD^+ was added in each well and the plate was incubated at ambient temperature (25° C.) for 60 min. After washing the plate 50 μl of Streptavidin-HRP was added in each well, the plate was incubated at RT for 30 min. The plate was washed and the luminescence was read in PHERAStar plate reader after adding 100 μl of chemiluminescent substrate.
PARP inhibition was calculated using the following formula:
% PARP inhibition=100−[(RLU test compound treated sample−RLU negative control)/(RLU Positive control−RLU negative control)×100]
IC50 values were calculated by plotting % inhibition against the respective concentrations of test compounds using GraphPad Prism 5.
Usually IC50 stands for the point on the concentration scale where inhibition reaches its midpoint. As for `O=c1[nH]c(C2=C[C@H](N3CCN(c4ccc(C(F)(F)F)cc4)CC3)CC2)cc2ncccc12` [Compound 33, (R)-7-(3-(4-(4-(trifluoromethyl)phenyl)piperazin-1-yl)cyclopent-1-en-1-yl)-1,6-naphthyridin-5(6H)-one], the IC50 lay within 5.1 to 50 nM.

Take `N#Cc1ccc(N2CCN([C@@H]3CC[C@@H](c4cc5ncccc5c(=O)[nH]4)C3)CC2)cc1` (single isomer, unassigned) [Compound 12]: the IC50 lay in the range of 5.1 to 50 nM.

Turning to `N#Cc1ccc(N2CCN([C@H]3C=C(c4cn5cccc5c(=O)[nH]4)CC3)CC2)cc1` [Compound 56, (R)-4-(4-(3-(1-oxo-1,2-dihydropyrrolo[1,2-a]pyrazin-3-yl)cyclopent-2-en-1-yl)piperazin-1-yl)benzonitrile], the IC50 was in the range of 0.5 to 5 nM.

With `CNC(=O)c1ccc(N2CCN([C@H]3C=C(c4cc5sccc5c(=O)[nH]4)CC3)CC2)cc1` [Compound 49, (R)—N-methyl-4-(4-(3-(4-oxo-4,5-dihydrothieno[3,2-c]pyridin-6-yl)cyclopent-2-en-1-yl)piperazin-1-yl)benzamide], the IC50 was 0.5 to 5 nM.

For `N#Cc1ccc(N2CCN([C@H]3C=C(c4cc5ncccc5c(=O)[nH]4)CC3)CC2)cc1` [Compound 1, (R)-4-(4-(3-(5-oxo-5,6-dihydro-1,6-naphthyridin-7-yl)cyclopent-2-en-1-yl)piperazin-1-yl)benzonitrile], the IC50 was 0.5 to 5 nM.

`N#Cc1ccc(N2CCN([C@H]3C=C(c4cc5cccn5c(=O)[nH]4)CC3)CC2)cc1` [Compound 54, (R)-4-(4-(3-(1-oxo-1,2-dihydropyrrolo[1,2-c]pyrimidin-3-yl)cyclopent-2-en-1-yl)piperazin-1-yl)benzonitrile]: the IC50 was in the range of 0.5 to 5 nM.

For the compound `N#Cc1ccc(N2CCN([C@@H]3C=C(c4cc5sccc5c(=O)[nH]4)CC3)CC2)cc1` [Compound 45, (S)-4-(4-(3-(4-oxo-4,5-dihydrothieno[3,2-c]pyridin-6-yl)cyclopent-2-en-1-yl)piperazin-1-yl)benzonitrile], the IC50 is 5.1 to 50 nM.

Turning to `N#Cc1ccc(N2CCN([C@H]3C=C(c4cc5ncc(F)cc5c(=O)[nH]4)CC3)CC2)cc1` [Compound 2, (R)-4-(4-(3-(3-fluoro-5-oxo-5,6-dihydro-1,6-naphthyridin-7-yl)cyclopent-2-en-1-yl)piperazin-1-yl)benzonitrile], the IC50 is 0.5 to 5 nM.
